One data set has as its system HIV-1IIIB virus strain. The data set can be described thus: Anti-HIV activity test (MT-2 cell model), p24 antigen ELISA. It counts as cell-based. Particulars: MT-2 cells; for EC50: Human immunodeficiency virus 1, MT2, HIV-1IIIB, 4th day, p24 antigen; for SI(CC50/EC50): ratio of toxicity CC50 value to activity EC50 value. The procedure:
Please refer to the document (Jiang, S., et al. Antimicrob. Agents Chemother. 2004, 48, 4349-4359). In a 96-pore cell culture plate, 50 μl of different concentrations of compound solutions were respectively mixed with equal-volume of HIV-1IIIB virus strain (100 TCID50), and incubated at 37° C. for 30 min, and then 100 μl MT-2 cell (1×10^5/mL, RPIM 1640 culture medium containing 10% serum) was added, and mixed homogenously, followed by incubation at 37° C. overnight. On the second day, 150 μl of the supernatant was sucked out, and equal-volume of fresh culture medium was replenished, followed by further incubation at 37° C. for 3 days. On the 4th day, cytopathic effect (CPE) was recorded. Thereafter, 100 μl of culture supernatant was sucked out, virus particles were split using 5% Triton X-100, and p24 antigen therein was tested by using ELISA assay. Briefly, a ELISA plate was coated with HIVIG (2 μg/mL), and blocked with 1% fat-free milk, then a virus lysate was added therein, followed by incubation at 37° C. for 60 min. After fully washing the plate, anti-p24 monoclonal antibody-183-12H-5C, biotin-labeled goat antimouse antibody and […]-labeled horseradish peroxidase were added in sequence. Then, after developing with TMB, OD was tested at 450 nm. The 50% effective concentration (EC50) of the compound was calculated using CalcuSyn software.
Background: ELISA stands for enzyme-linked immunosorbent assay.

Data set [1] is described as follows: Cytotoxicity test of the compound (MT-2 cells, XTT). The format is cell-based. The conditions noted are these: human, 4th day. As to the method:
Please refer to the document (Jiang, S., et al. Antimicrob. Agents Chemother. 2004, 48, 4349-4359). In a 96-pore cell culture plate, 50 μl of different concentrations of compound solutions were respectively mixed with equal-volume of PBS, and incubated at 37° C. for 30 min, and then 100 μl MT-2 (or H9) cells (1×10^5/mL, RPIM 1640 culture medium containing 10% serum) was added, and mixed homogenously, followed by incubation at 37° C. overnight. On the second day, 150 μl of the supernatant was sucked out, and equal-volume of fresh culture medium was replenished, followed by further incubation at 37° C. for 3 days. On the 4th day, 50 μl of a XTT solution (1 mg/mL) containing PMS as freshly prepared was added. After 4 h, OD at 450 nm was tested. The 50% cytotoxicity concentration (CC50) of the compound was calculated using CalcuSyn software.
A general note: Tetrazolium assays rely on reduction of a dye to a coloured formazan, in cell work by metabolically active cells.

Values after ≈ are worked out from the molar mass of the structure shown.

A word on the melting point: it is the temperature, or range, at which the solid turns liquid. What is called EC50 is the concentration at which the effect is half-maximal. Higher therefore signals lower potency in that assay. As a reminder, the CC50 is the concentration that lowers cell viability or growth by half. High values mean lower toxicity to the cells, low ones greater toxicity to the cells.

As to `Cc1cc([N+](=O)[O-])cc(C)c1Oc1ccc([N+](=O)[O-])c(Nc2ccc(C#N)cc2)n1`, the melting point lay in the range of 250 to 252 °C.
Turning to `Cc1cc(C)c(Oc2ccc([N+](=O)[O-])c(Nc3ccc(C#N)cc3)n2)c(C)c1` [Compound I-3, 2-(4-cyanophenylamino)-6-(2,4,6-trimethylphenoxy)-3-nitropyridine], in the data set with HIV-1IIIB virus strain, the EC50 worked out at 0.118 µg/mL (≈ 0.315 µM) and the “SI(CC50/EC50)” value was 4,264. The compound also had a CC50 at 4 days in data set [1] of 503 µg/mL (≈ 1340 µM).
On the same counts, the results for `Cc1cc(C=CC#N)cc(C)c1Oc1ccc([N+](=O)[O-])c(Nc2ccc(C#N)cc2)n1` [Compound I-5, 2-(4-cyanophenylamino)-6-(2,6-dimethyl-4-cyanovinylphenoxy)-3-nitropyridine] are 0.005 µg/mL (≈ 0.0122 µM), 4,956 and 24.8 µg/mL (≈ 60.2 µM).
On the same counts, the results for `Cc1cc(C#N)cc(C)c1Oc1ccc(N)c(Nc2ccc(C#N)cc2)n1` [Compound I-6, 3-amino-2-(4-cyanophenylamino)-6-(2,6-dimethyl-4-cyanophenoxy)pyridine] are 0.0005 µg/mL (≈ 0.00141 µM), 22,560 and 11.3 µg/mL (≈ 31.7 µM).
The like results for `Cc1cc(CO)cc(C)c1Oc1ccc([N+](=O)[O-])c(Nc2ccc(C#N)cc2)n1` [Compound I-8, 2-(4-cyanophenylamino)-6-(2,6-dimethyl-4-hydroxymethylphenoxy)-3-nitropyridine] were, in that order, 0.075 µg/mL (≈ 0.192 µM), 602 and 45.2 µg/mL (≈ 116 µM).
`C=CCc1cc(C)c(Oc2ccc([N+](=O)[O-])c(Nc3ccc(C#N)cc3)n2)c(C)c1` [Compound I-9, 2-(4-cyanophenylamino)-6-(2,6-dimethyl-4-allylphenoxy)-3-nitropyridine]: in the data set on HIV-1IIIB virus strain, the 50% effective concentration (EC50) is 0.109 µg/mL (≈ 0.272 µM) and the “SI(CC50/EC50)” value is greater than 917. Besides, in data set [1], the CC50 at 4 days is greater than 100 µg/mL.
The like results for `Cc1cc(C=CC#N)cc(C)c1Oc1ccc(N)c(Nc2ccc(C#N)cc2)n1` [Compound I-10, 3-amino-2-(4-cyanophenylamino)-6-(2,6-dimethyl-4-cyanovinylphenoxy)pyridine] were, in that order, 0.0042 µg/mL (≈ 0.011 µM), 6,656 and 27.9 µg/mL (≈ 73.3 µM).
`Cc1cc(Br)cc(C)c1Oc1ccc(N)c(Nc2ccc(C#N)cc2)n1` [Compound I-12, 3-amino-2-(4-cyanophenylamino)-6-(2,6-dimethyl-4-bromophenoxy)pyridine] gave a melting point of 190 to 193 °C. Besides, in the data set with HIV-1IIIB virus strain, the midpoint of the response, the EC50, lay at 0.021 µg/mL (≈ 0.0513 µM) and the “SI(CC50/EC50)” value is 259. In data set [1], this compound yielded a CC50 at 4 days of 5.44 µg/mL (≈ 13.3 µM).
On the same counts, the results for `C=CCc1cc(C)c(Oc2ccc(N)c(Nc3ccc(C#N)cc3)n2)c(C)c1` [Compound I-13, 3-amino-2-(4-cyanophenylamino)-6-(2,6-dimethyl-4-allylphenoxy)pyridine] are 150 to 152 °C, 0.09 µg/mL (≈ 0.243 µM), 24 and 2.13 µg/mL (≈ 5.75 µM).
In the case of `Cc1cc(C(O)C[N+](=O)[O-])cc(C)c1Oc1ccc([N+](=O)[O-])c(Nc2ccc(C#N)cc2)n1` (stereo not shown) [Compound I-14, 2-(4-cyanophenylamino)-6-(2,6-dimethyl-4-(1-hydroxy-2-nitroethyl)phenoxy)-3-nitropyridine], the melting point is 230 to 234 °C. In the data set on HIV-1IIIB virus strain, the EC50 stood at 0.77 µg/mL (≈ 1.71 µM) and the “SI(CC50/EC50)” value stood at 16. Further, the half-maximal cytotoxic concentration (CC50) at 4 days in data set [1] was found to be 12.2 µg/mL (≈ 27 µM).
Regarding `Cc1cc(CNC2CC2)cc(C)c1Oc1ccc([N+](=O)[O-])c(Nc2ccc(C#N)cc2)n1` [Compound I-15, 2-(4-cyanophenylamino)-6-(2,6-dimethyl-4-(2-cyclopropylaminomethyl)phenoxy)-3-nitropyridine], the melting point was in the range of 175 to 177 °C.
Turning to `Cc1cc(I)cc(C)c1Oc1ccc([N+](=O)[O-])c(Nc2ccc(C#N)cc2)n1` [Compound I-16, 2-(4-cyanophenylamino)-6-(2,6-dimethyl-4-iodophenoxy)-3-nitropyridine], the melting point lay in the range of 162 to 165 °C. Also, in the data set with HIV-1IIIB virus strain, the midpoint of the response, the EC50, lay at 1.18 µg/mL (≈ 2.43 µM) and the “SI(CC50/EC50)” value is 61. In data set [1], this compound returned a CC50 at 4 days of 72.2 µg/mL (≈ 148 µM).
`Cc1cc(C#CC(C)(C)O)cc(C)c1Oc1ccc([N+](=O)[O-])c(Nc2ccc(C#N)cc2)n1` [Compound I-18, 2-(4-cyanophenylamino)-6-(2,6-dimethyl-4-(3-methyl-3-hydroxy-1-butynyl)phenoxy)-3-nitropyridine] showed a melting point of 114 to 116 °C.
On the same count and under the same terms, the value for `Cc1cc(C#CC2CC2)cc(C)c1Oc1ccc([N+](=O)[O-])c(Nc2ccc(C#N)cc2)n1` [Compound I-20, 2-(4-cyanophenylamino)-6-(2,6-dimethyl-4-(cyclopropylethynyl)phenoxy)-3-nitropyridine] was 188 to 192 °C; that for `Cc1cc(C#CC2CC2)cc(C)c1Oc1ccc(N)c(Nc2ccc(C#N)cc2)n1` [Compound I-21, 3-amino-2-(4-cyanophenylamino)-6-(2,6-dimethyl-4-(cyclopropylethynyl)phenoxy)pyridine] was 82 to 85 °C.
Compound `C#Cc1cc(C)c(Oc2ccc([N+](=O)[O-])c(Nc3ccc(C#N)cc3)n2)c(C)c1` [Compound I-22, 2-(4-cyanophenylamino)-6-(2,6-dimethyl-4-ethynylphenoxy)-3-nitropyridine] showed a melting point of 186 to 188 °C. Moreover, in the data set on HIV-1IIIB virus strain, the EC50 is 0.26 µg/mL (≈ 0.676 µM) and the “SI(CC50/EC50)” value is given as 256. This compound returned a half-maximal cytotoxic concentration (CC50) at 4 days in data set [1] of 66.7 µg/mL (≈ 173 µM).
On the same counts, the results for `C#Cc1cc(C)c(Oc2ccc(N)c(Nc3ccc(C#N)cc3)n2)c(C)c1` [Compound I-23, 3-amino-2-(4-cyanophenylamino)-6-(2,6-dimethyl-4-ethynylphenoxy)pyridine] are 79 to 82 °C, 0.15 µg/mL (≈ 0.423 µM), 19 and 2.92 µg/mL (≈ 8.24 µM).
In the case of `Cc1cc(N)cc(C)c1Oc1ccc(N)c(Nc2ccc(C#N)cc2)n1` [Compound I-24, 3-amino-2-(4-cyanophenylamino)-6-(2,6-dimethyl-4-aminophenoxy)pyridine], the melting point lay within 195 to 198 °C.
Take `Cc1cc(I)cc(C)c1Oc1ccc(N)c(Nc2ccc(C#N)cc2)n1` [Compound I-25, 3-amino-2-(4-cyanophenylamino)-6-(2,6-dimethyl-4-iodophenoxy)pyridine]: in the data set with HIV-1IIIB virus strain, a half-maximal response (EC50) required 0.036 µg/mL (≈ 0.0789 µM) and the “SI(CC50/EC50)” value stood at 298. For the same compound, the midpoint of cytotoxicity in data set [1], the CC50 at 4 days, lay at 10.7 µg/mL (≈ 23.5 µM).
`N#Cc1ccc(Nc2nc(Oc3c(Br)cc(Br)cc3Br)ccc2[N+](=O)[O-])cc1` [Compound I-26, 2-(4-cyanophenylamino)-6-(2,4,6-tribromophenoxy)-3-nitropyridine] showed a melting point of 188 to 191 °C. In the data set with HIV-1IIIB virus strain, the EC50 was 0.179 µg/mL (≈ 0.315 µM) and the “SI(CC50/EC50)” value was found to be 151. Half-maximal cytotoxicity in data set [1] (CC50 at 4 days) was put at 27 µg/mL (≈ 47.4 µM).
The compound `N#Cc1ccc(Nc2nc(Oc3c(Br)cc(C=O)cc3Br)ccc2[N+](=O)[O-])cc1` [Compound I-27, 2-(4-cyanophenylamino)-6-(2,6-dibromo-4-formylphenoxy)-3-nitropyridine] registered a melting point of 218 to 220 °C. The compound further registered a concentration giving a half-maximal response (EC50) with HIV-1IIIB virus strain of 0.152 µg/mL (≈ 0.293 µM). The CC50 at 4 days in data set [1] turned out to be 0.78 µg/mL (≈ 1.51 µM).

Source of the values: patent US8933106B2, “2-(4-substituted phenylamino) polysubstituted pyridine compounds as inhibitors of non-nucleoside HIV reverse transcriptase, preparation methods and uses thereof” (Institute of Pharmacology and Toxicology Academy of …, priority 2008, dated 2015).
